Experiment [1] concerns herpes simplex virus type 1 (HSV-1), including acyclovir-resistant HSV-1 strain. More on the design: method as in doi:10.1002/ejoc.201900727, doi:10.1515/pac-2019-1214, doi:10.1007/s10593-021-02929-z. The settings on record: HSV-1 including acyclovir-resistant strain; cited from earlier work.
In a further experiment the test system is MDA-MB-231 cells. Put plainly: Cell cycle analysis by flow cytometry (propidium iodide), MDA-MB-231. The experiment is classed as cell-based, human. The settings on record: 24 h; for Cell proliferation index (%) / Number of cells (%) in cell cycle phase G0/G1 / Number of cells (%) in cell cycle phase G2M / Number of cells (%) in cell cycle phase S: M ± SD (n = 3). The method, then: To study the potential cytostatic effect of compound 1d, we chose the method of cell cycle analysis using flow cytometry by DNA staining with propidium iodide.
To analyze possible effects on the cell cycle, we tested three concentrations of compound 1d, which were close to CC50 calculated on the basis of viability assessment data (MTT assay).
Cell cycle analysis was performed by flow cytometry by staining DNA with propidium iodide (PI). For this, cells were seeded into 6-well plates: 2 × 10^5 COLO201 cells per well and 1.2 × 10^5 MDA-MB-231 cells per well. […] The final concentration of DMSO in the culture medium was 0.1%; an equivalent volume was added to the control cells. The plates were incubated for 24 h in a CO2 incubator. Then, cells were detached from the plastic surface using TrypLE, washed with PBS, and fixed with 70% ethanol. Next, the cells were incubated for 1 h in the dark at 4 °C, then sedimented by centrifugation at 184× g for 10 min, and washed twice with PBS. PBS (0.3 mL) containing 0.1% Triton X-100, 1 µg/mL PI, and 0.2 mg/mL RNAse A was added to the pellet, incubated for 30 min at room temperature in the dark, and analyzed on a CytoFlex flow cytometer (Beckman Coulter, Brea, CA, USA).
The cell population in the test sample was found and gated on forward versus side scatter (FSC-A vs. SSC-A). Next, doublets were discriminated and removed via PI signal height versus PI signal area (PI-H vs. PI-A). For cell cycle phases analysis, PI-A was plotted against number of events (number of cells) (PI-A vs. Count).
The flow cytometry data were processed using the Kaluza Analysis 2.1 software (Beckman Coulter, Brea, CA, USA). Percentages of cell populations distributed in the various phases of the cell cycle (sub-G1, G0/G1, S, and G2M) were calculated. The result was considered significant if the coefficient of variation (CV) was less than 6.
On the technique in general: In flow cytometry, cells or beads pass a laser one at a time.

The structures appear in SMILES notation.

For the compound `CC1COc2c(ccc(F)c2F)N1C(=O)CCCCCCCNc1ncnc2[nH]cnc12` (centres unmarked) [Compound 1c], the “antiviral activity in vitro against HSV-1” value in experiment [1] was “high antiviral activity”.
Regarding `CC1COc2c(ccc(F)c2F)N1C(=O)CCCCCCCCCCNc1ncnc2[nH]cnc12` (centres unmarked) [Compound 1d], in the experiment on MDA-MB-231 cells (MDA-MB-231, 10×10–6 M), the “Cell proliferation index (%)” value turned out to be 39.08%, the “Number of cells (%) in cell cycle phase G0/G1” value amounted to 60.92%, the “Number of cells (%) in cell cycle phase G2M” value worked out at 13.74% and the “Number of cells (%) in cell cycle phase S” value is given as 25.33%. In addition, in the experiment with MDA-MB-231 cells (MDA-MB-231, 20×10–6 M), the “Cell proliferation index (%)” value stood at 37.57%, the “Number of cells (%) in cell cycle phase G0/G1” value amounted to 62.13%, the “Number of cells (%) in cell cycle phase G2M” value was found to be 17.05% and the “Number of cells (%) in cell cycle phase S” value is 20.52%. Besides, in the experiment with MDA-MB-231 cells (MDA-MB-231, 30×10–6 M), the “Cell proliferation index (%)” value came to 40.63%, the “Number of cells (%) in cell cycle phase G0/G1” value was determined as 59.37%, the “Number of cells (%) in cell cycle phase G2M” value is listed as 27.49% and the “Number of cells (%) in cell cycle phase S” value is 13.13%. Further, the “cell cycle arrest phase” value with MDA-MB-231 cells (MDA-MB-231, entire range of concentrations studied) was “arrest of the cell cycle in the G0/G1 phase”.

These data come from article PMC9962735, “Synthesis and Cytotoxic Activity of the Derivatives of N-(Purin-6-yl)aminopolymethylene Carboxylic Acids and Related Compounds” (Molecules, 2023).
